Test results as given in patent US10035800B2 (AbbVie Inc., priority 2013, dated 2018).

Tests used:
BRD4 (BDI_K57-E168) = target: T1, BRD4 (BDI_K57-E168) (Homo sapiens, UniProt O60885); assay: TR-FRET bromodomain binding assay, first bromodomain of BRD4; conditions: TR-FRET assay protocol G (compound 0.92 μM-15 pM); 100 nM probe
T1 construct: BD1: amino acids K57-E168; made in house
Summary of the method: (§1)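 Probe displacement by TR-FRET: 8 nM His-BRD4 bromodomain, 1 nM Eu-anti-His, Alexa647 BET-inhibitor probe at 100 nM (BDI) or 30 nM (BDII); 20 mM Na phosphate pH 6.0, 2% DMSO; 1 h RT. Ex 340, Em 495/520. IC50 from 4PL fit; Ki from IC50, probe Kd and probe concentration.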

BRD4 (BDII_E352-M457) = target: T2, BRD4 (BDII_E352-M457) (Homo sapiens, UniProt O60885); assay: TR-FRET bromodomain binding assay, second bromodomain of BRD4; conditions: TR-FRET assay protocol G (compound 0.92 μM-15 pM); 30 nM probe
T2 construct: protocol; made in house
Summary of the method: as §1

[1] = system: breast cancer cell line MX-1; assay: MX-1 cell line proliferation assay; type: cell-based; conditions: MX-1 cells, 3-day proliferation assay, Cell Titer Glo; read-out: Cellular proliferation: EC50
Summary of the method: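 MX-1 cells at 5000/well, in RPMI 1640 with 10% FBS, were exposed to compounds for 3 days. Final concentrations ranged 3 μM–0.1 nM or 1 μM–0.03 nM, in 3-fold steps. Cell Titer Glo luminescence was normalized to DMSO and fitted sigmoidally for EC50; overall MSR 2.1.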

SMILES | Ki (BRD4 (BDI_K57-E168)) | Ki (BRD4 (BDII_E352-M457)) | EC50 [1]
COC(=O)NC1CCC(N2Cc3c[nH]c4c(=O)n(C)cc(c34)-c3cc(CS(C)(=O)=O)ccc32)CC1 (stereo not drawn) [Example 226, methyl ((cis)-4-(10-methyl-7-((methylsulfonyl)methyl)-11-oxo-10,11-dihydro-1H-1,4,10-triazadibenzo[cd,f]azulen-4(3H)-yl)cyclohexyl)carbamate] | 3.84 nM | 1.86 nM | 7.82 nM
Cn1cc2c3c(c[nH]c3c1=O)C(C1CCOCC1)N(c1ccc(F)cc1F)c1ccc(CS(C)(=O)=O)cc1-2 (stereo not drawn) [Example 228, 4-(2,4-difluorophenyl)-10-methyl-7-((methylsulfonyl)methyl)-3-(tetrahydro-2H-pyran-4-yl)-3,4-dihydro-1H-1,4,10-triazadibenzo[cd,f]azulen-11(10H)-one] | 24.5 nM | 2.22 nM | 84.9 nM
Cn1cc2c3c(c[nH]c3c1=O)C(c1ccccc1-c1ccccc1)N(c1ccc(F)cc1F)c1ccc(CS(C)(=O)=O)cc1-2 (stereo not drawn) [Example 230] | > 238 nM | 58.1 nM | 528 nM
Cn1cc2c3c(c[nH]c3c1=O)C(c1cccc3cccnc13)N(c1ccc(F)cc1F)c1ccc(CS(C)(=O)=O)cc1-2 (stereo not drawn) [Example 231, 4-(2,4-difluorophenyl)-10-methyl-7-((methylsulfonyl)methyl)-3-(quinolin-8-yl)-3,4-dihydro-1H-1,4,10-triazadibenzo[cd,f]azulen-11(10H)-one] | 39 nM | 5.42 nM | 149 nM
Cn1cc2c3c(c[nH]c3c1=O)C(c1ccccn1)N(c1ccc(F)cc1F)c1ccc(CS(C)(=O)=O)cc1-2 (stereo not drawn) [Example 232, 4-(2,4-difluorophenyl)-10-methyl-7-((methylsulfonyl)methyl)-3-(pyridin-2-yl)-3,4-dihydro-1H-1,4,10-triazadibenzo[cd,f]azulen-11(10H)-one] | 108 nM | 8.48 nM | 363 nM
Cn1cc2c3c(c[nH]c3c1=O)C(c1cccc(C#N)c1)N(c1ccc(F)cc1F)c1ccc(CS(C)(=O)=O)cc1-2 (stereo not drawn) [Example 237, 3-(4-(2,4-difluorophenyl)-10-methyl-7-((methylsulfonyl)methyl)-11-oxo-3,4,10,11-tetrahydro-1H-1,4,10-triazadibenzo[cd,f]azulen-3-yl)benzonitrile] | 21.8 nM | 12.1 nM | 313 nM
Cn1cc2c3c(c[nH]c3c1=O)C(Cn1ccccc1=O)N(c1ccc(F)cc1F)c1ccc(CS(C)(=O)=O)cc1-2 (stereo not drawn) [Example 238, 4-(2,4-difluorophenyl)-10-methyl-7-((methylsulfonyl)methyl)-3-((2-oxopyridin-1(2H)-yl)methyl)-3,4-dihydro-1H-1,4,10-triazadibenzo[cd,f]azulen-11(10H)-one] | 62.1 nM | 4.6 nM | 275 nM
CCNC(=O)c1[nH]c2c(=O)n(C)cc3c2c1C(C(=O)OCC)N(c1ccc(F)cc1F)c1ccc(CS(C)(=O)=O)cc1-3 (stereo not drawn) [Example 239, ethyl 4-(2,4-difluorophenyl)-2-(ethylcarbamoyl)-10-methyl-7-((methylsulfonyl)methyl)-11-oxo-3,4,10,11-tetrahydro-1H-1,4,10-triazadibenzo[cd,f]azulene-3-carboxylate] | 31.9 nM | 2.12 nM | 294 nM
Cn1cc2c3c(c[nH]c3c1=O)CN(c1ccc(F)cc1F)c1c(C(N)=O)cc(CS(C)(=O)=O)cc1-2 [Example 240, 4-(2,4-difluorophenyl)-10-methyl-7-((methylsulfonyl)methyl)-11-oxo-3,4,10,11-tetrahydro-1H-1,4,10-triazadibenzo[cd,f]azulene-5-carboxamide] | 3.14 nM | 1.93 nM | 85.9 nM
CNC(=O)c1cc(CS(C)(=O)=O)cc2c1N(c1ccc(F)cc1F)Cc1c[nH]c3c(=O)n(C)cc-2c13 [Example 241, 4-(2,4-difluorophenyl)-N,10-dimethyl-7-((methylsulfonyl)methyl)-11-oxo-3,4,10,11-tetrahydro-1H-1,4,10-triazadibenzo[cd,f]azulene-5-carboxamide] | 3.07 nM | 1.76 nM | 51.5 nM
CN(C)C(=O)c1cc(CS(C)(=O)=O)cc2c1N(c1ccc(F)cc1F)Cc1c[nH]c3c(=O)n(C)cc-2c13 [Example 242, 4-(2,4-difluorophenyl)-N,N,10-trimethyl-7-((methylsulfonyl)methyl)-11-oxo-3,4,10,11-tetrahydro-1H-1,4,10-triazadibenzo[cd,f]azulene-5-carboxamide] | 12.6 nM | 3.78 nM | > 1000 nM
Cn1cc2c3c(c[nH]c3c1=O)CN(c1cccnc1)c1ccc(CS(C)(=O)=O)cc1-2 [Example 244, 10-methyl-7-((methylsulfonyl)methyl)-4-(pyridin-3-yl)-3,4-dihydro-1H-1,4,10-triazadibenzo[cd,f]azulen-11(10H)-one] | 0.43 nM | 1.02 nM | 2.13 nM
Cn1cc2c3c(c[nH]c3c1=O)CN(c1ccc(Cl)cn1)c1ccc(CS(C)(=O)=O)cc1-2 [Example 245, 4-(5-chloropyridin-2-yl)-10-methyl-7-((methylsulfonyl)methyl)-3,4-dihydro-1H-1,4,10-triazadibenzo[cd,f]azulen-11(10H)-one] | 0.54 nM | 0.94 nM | 1.09 nM
Cn1cc2c3c(c[nH]c3c1=O)CN(Cc1ccccc1)c1ccc(CS(C)(=O)=O)cc1-2 [Example 247, 4-benzyl-10-methyl-7-((methylsulfonyl)methyl)-3,4-dihydro-1H-1,4,10-triazadibenzo[cd,f]azulen-11(10H)-one] | 2.22 nM | 2.42 nM | 4.94 nM
Cn1cc2c3c(c[nH]c3c1=O)CN(c1cncnc1)c1ccc(CS(C)(=O)=O)cc1-2 [Example 248, 10-methyl-7-((methylsulfonyl)methyl)-4-(pyrimidin-5-yl)-3,4-dihydro-1H-1,4,10-triazadibenzo[cd,f]azulen-11(10H)-one] | 3.39 nM | 3.29 nM | 25.6 nM
Cn1cc2c3c(c[nH]c3c1=O)CN(Cc1ccccn1)c1ccc(CS(C)(=O)=O)cc1-2 [Example 249, 10-methyl-7-((methylsulfonyl)methyl)-4-(pyridin-2-ylmethyl)-3,4-dihydro-1H-1,4,10-triazadibenzo[cd,f]azulen-11(10H)-one] | 6.1 nM | 19.1 nM | 17.7 nM
Cn1cc2c3c(c[nH]c3c1=O)CN(Cc1cccnn1)c1ccc(CS(C)(=O)=O)cc1-2 [Example 250, 10-methyl-7-((methylsulfonyl)methyl)-4-(pyridazin-3-ylmethyl)-3,4-dihydro-1H-1,4,10-triazadibenzo[cd,f]azulen-11(10H)-one] | 8.8 nM | 22.5 nM | 845 nM
Cn1cc2c3c(c[nH]c3c1=O)CN(c1ccc(C(F)(F)F)cn1)c1ccc(CS(C)(=O)=O)cc1-2 [Example 253, 10-methyl-7-((methylsulfonyl)methyl)-4-(5-(trifluoromethyl)pyridin-2-yl)-3,4-dihydro-1H-1,4,10-triazadibenzo[cd,f]azulen-11(10H)-one] | 0.7 nM | 1.18 nM | 1.3 nM
Cn1ccc(CN2Cc3c[nH]c4c(=O)n(C)cc(c34)-c3cc(CS(C)(=O)=O)ccc32)n1 [Example 255, 10-methyl-4-((1-methyl-1H-pyrazol-3-yl)methyl)-7-((methylsulfonyl)methyl)-3,4-dihydro-1H-1,4,10-triazadibenzo[cd,f]azulen-11(10H)-one] | 4.53 nM | 7.33 nM | 34.3 nM
Cn1cc2c3c(c[nH]c3c1=O)CN(CC(C)(C)CN1CCOCC1)c1ccc(CS(C)(=O)=O)cc1-2 [Example 257, 4-(2,2-dimethyl-3-morpholinopropyl)-10-methyl-7-((methylsulfonyl)methyl)-3,4-dihydro-1H-1,4,10-triazadibenzo[cd,f]azulen-11(10H)-one] | 2.34 nM | 9.19 nM | 21.1 nM
Cn1cc2c3c(c[nH]c3c1=O)CN(c1ncc(F)cn1)c1ccc(CS(C)(=O)=O)cc1-2 [Example 258, 4-(5-fluoropyrimidin-2-yl)-10-methyl-7-((methylsulfonyl)methyl)-3,4-dihydro-1H-1,4,10-triazadibenzo[cd,f]azulen-11(10H)-one] | 0.92 nM | 2.39 nM | 4.43 nM
Cn1cc2c3c(c[nH]c3c1=O)CN(C(C#N)c1ccccc1)c1ccc(CS(C)(=O)=O)cc1-2 (stereo not drawn) [Example 261] | 9.32 nM | 7.78 nM | > 1000 nM
Cn1cc2c3c(c(C(=O)O)[nH]c3c1=O)CN(c1ccc(F)cc1F)c1ccc(CS(C)(=O)=O)cc1-2 [Example 263, 4-(2,4-difluorophenyl)-10-methyl-7-((methylsulfonyl)methyl)-11-oxo-3,4,10,11-tetrahydro-1H-1,4,10-triazadibenzo[cd,f]azulene-2-carboxylic acid] | 7.04 nM | 8.07 nM | > 1000 nM
Cn1cc2c3c(c[nH]c3c1=O)CN(Cc1ccccc1OCc1ccccn1)c1ccc(CS(C)(=O)=O)cc1-2 [Example 264, 10-methyl-7-((methylsulfonyl)methyl)-4-(2-(pyridin-2-ylmethoxy)benzyl)-3,4-dihydro-1H-1,4,10-triazadibenzo[cd,f]azulen-11(10H)-one] | 6.97 nM | 1.53 nM | 899 nM
